# Reference: publication PMC9981942, “Pharmacokinetics and tissue distribution of Ramulus Mori (Sangzhi) alkaloids in rats and its effects on liver enzyme activity” (Frontiers in Pharmacology, 2023)
# Where two headings read alike, the source gives them in different places.
# Tests used:
# [1] = Pharmacokinetic study: plasma levels after oral SZ-A in SD rats (LC-MS/MS, DAS 3.2.8); type: in vivo; conditions: for Tmax / AUC(0-inf) / AUC(0-t) / Cmax / half-life / MRT last / MRT inf: both sexes, rat; for Tmax: SD, po; for Tmax / AUC(0-inf) / AUC(0-t) / Cmax / half-life / MRT last / MRT inf / CLz / VRT(0-t) / VRT(0-∞) / Vz: plasma; for AUC(0-inf) / AUC(0-t) / Cmax / half-life / CLz / VRT(0-t) / VRT(0-∞) / Vz: n=8; for MRT last: n=8, read-out: MRT(0-t); for MRT inf: n=8, read-out: MRT(0-∞)
# Experimental: Twenty-four SD rats were fasted for 12 h (free access to water) and randomly classified into three groups (n = 8; half male and female) that received different doses of SZ-A solution (25, 50, and 200 mg/kg) via oral administration. After completion of dose administration, blood samples (0.3 mL) were collected through an indwelling catheter from the jugular vein at predetermined time points (5, 15, 30, and 45 min, 1, 2, 4, 8, and 24 h). The blood was centrifuged at 5,000 rpm for 10 min to separate the plasma. All plasma samples were stored frozen at −80°C until liquid chromatography coupled to tandem mass spectrometry (LC-MS/MS) analysis (AB SCIEX Triple Quad™ 4,500 mass spectrometer, Applied Biosystems Inc., United States).
# Primary pharmacokinetic parameters, including Cmax, Tmax, area under the plasma concentration-time curve (AUC), t1/2, clearance rate, and the apparent volume of distribution, were calculated using DAS 3.2.8 (Bio Guider Co., Shanghai, China).
# [2] = design: method as in Mackay et al., 2003; conditions: rats; ref Mackay et al., 2003; cited from earlier work
# major CYP450s in HLMs = assay: Effect on activity of the major CYP450s in human liver microsomes (all isoforms together); conditions: final concentration SZ-A 8.899 μg/mL (equivalent to DNJ 20 μM), FA 5 μM, DAB 8 μM
# [3] = design: method as in Nakagawa et al., 2007; conditions: rats, after oral gavage of DNJ; ref Nakagawa et al., 2007; cited from earlier work
# [4] = 25 mg/kg, oral SZ-A 25 mg/kg, n=8, read-out: Tmax
# [5] = 50 mg/kg, oral SZ-A 50 mg/kg, n=8, read-out: Tmax
# [6] = 200 mg/kg, oral SZ-A 200 mg/kg, n=8, read-out: Tmax
# [7] = 200 mg/kg, oral SZ-A 25, 50 and 200 mg/kg, read-out: time to maximum plasma concentration (Tmax), all dose groups
SMILES,"Tmax [1, 4]","Tmax [1, 5]","Tmax [1, 6]","Tmax [1, 7]",AUC(0-inf) ([1]; oral SZ-A 25 mg/kg),AUC(0-t) ([1]; oral SZ-A 25 mg/kg),Cmax ([1]; oral SZ-A 25 mg/kg),half-life ([1]; oral SZ-A 25 mg/kg),MRT last ([1]; oral SZ-A 25 mg/kg),MRT inf ([1]; oral SZ-A 25 mg/kg),AUC(0-inf) ([1]; oral SZ-A 50 mg/kg),AUC(0-t) ([1]; oral SZ-A 50 mg/kg),Cmax ([1]; oral SZ-A 50 mg/kg),half-life ([1]; oral SZ-A 50 mg/kg),MRT last ([1]; oral SZ-A 50 mg/kg),MRT inf ([1]; oral SZ-A 50 mg/kg),AUC(0-inf) ([1]; oral SZ-A 200 mg/kg),AUC(0-t) ([1]; oral SZ-A 200 mg/kg),Cmax ([1]; oral SZ-A 200 mg/kg),half-life ([1]; oral SZ-A 200 mg/kg),further results
"OC[C@H]1NC[C@@H](O)[C@@H]1O [DAB, 1,4-dideoxy-1,4-imino-D-arabinitol]",0.31 ± 0.12 h,0.44 ± 0.35 h,0.75 ± 0.3 h,≤ 0.88 h,1360 ± 299 ng·h/mL,1360 ± 299 ng·h/mL,1050 ± 141 ng/mL,1.16 ± 0.31 h,1.26 ± 0.17 h,1.26 ± 0.17 h,2660 ± 367 ng·h/mL,2660 ± 367 ng·h/mL,1770 ± 632 ng/mL,1.2 ± 0.03 h,1.45 ± 0.56 h,1.45 ± 0.56 h,7630 ± 2040 ng·h/mL,7630 ± 2040 ng·h/mL,3640 ± 1370 ng/mL,1.08 ± 0.04 h,"MRT last ([1]; oral SZ-A 200 mg/kg): 1.6 ± 0.26 h; MRT inf ([1]; oral SZ-A 200 mg/kg): 1.6 ± 0.26 h; CLz ([1]; oral SZ-A 25 mg/kg): 45.3 ± 11 mL/min/kg; VRT(0-t) ([1]; oral SZ-A 25 mg/kg): 1.25±0.51 h^2; VRT(0-∞) ([1]; oral SZ-A 25 mg/kg): 1.25±0.51 h^2; Vz ([1]; oral SZ-A 25 mg/kg): 4.47 ± 1.53 L/kg; CLz ([1]; oral SZ-A 50 mg/kg): 45.2 ± 6.17 mL/min/kg; VRT(0-t) ([1]; oral SZ-A 50 mg/kg): 1.83±2.07 h^2; VRT(0-∞) ([1]; oral SZ-A 50 mg/kg): 1.83±2.07 h^2; Vz ([1]; oral SZ-A 50 mg/kg): 4.70 ± 0.65 L/kg; CLz ([1]; oral SZ-A 200 mg/kg): 65.7 ± 16.7 mL/min/kg; VRT(0-t) ([1]; oral SZ-A 200 mg/kg): 1.92±0.81 h^2; VRT(0-∞) ([1]; oral SZ-A 200 mg/kg): 1.92±0.81 h^2; Vz ([1]; oral SZ-A 200 mg/kg): 6.20 ± 1.82 L/kg; form excreted [2]: mainly excreted unchanged; effect on the major CYP450s in HLMs, either inhibition or activation (major CYP450s in HLMs): no significant effect"
"OC[C@H]1NC[C@H](O)[C@@H](O)[C@@H]1O [DNJ, 1-deoxynojirimycin]",0.41 ± 0.23 h,0.63 ± 0.33 h,0.78 ± 0.25 h,≤ 0.88 h,7160 ± 1650 ng·h/mL,7160 ± 1650 ng·h/mL,4950 ± 978 ng/mL,1.02 ± 0.27 h,1.27 ± 0.2 h,1.27 ± 0.2 h,12600 ± 3470 ng·h/mL,12600 ± 3470 ng·h/mL,7080 ± 1640 ng/mL,1.07 ± 0.04 h,1.51 ± 0.42 h,1.51 ± 0.42 h,38500 ± 18000 ng·h/mL,38300 ± 18000 ng·h/mL,19400 ± 10800 ng/mL,3.25 ± 4.2 h,"MRT last ([1]; oral SZ-A 200 mg/kg): 1.79 ± 0.3 h; MRT inf ([1]; oral SZ-A 200 mg/kg): 2.02 ± 0.59 h; differences in t1/2 and CLz between the three doses ([1]; oral SZ-A 25, 50, 200 mg/kg): no significant differences; CLz ([1]; oral SZ-A 25 mg/kg): 41.7 ± 11.2 mL/min/kg; VRT(0-t) ([1]; oral SZ-A 25 mg/kg): 1.15±0.57 h^2; VRT(0-∞) ([1]; oral SZ-A 25 mg/kg): 1.15±0.57 h^2; Vz ([1]; oral SZ-A 25 mg/kg): 3.65 ± 1.45 L/kg; CLz ([1]; oral SZ-A 50 mg/kg): 48 ± 12.7 mL/min/kg; VRT(0-t) ([1]; oral SZ-A 50 mg/kg): 2.02±1.71 h^2; VRT(0-∞) ([1]; oral SZ-A 50 mg/kg): 2.02±1.71 h^2; Vz ([1]; oral SZ-A 50 mg/kg): 4.47 ± 1.30 L/kg; CLz ([1]; oral SZ-A 200 mg/kg): 74.5 ± 44.2 mL/min/kg; VRT(0-t) ([1]; oral SZ-A 200 mg/kg): 6.42±4.65 h^2; VRT(0-∞) ([1]; oral SZ-A 200 mg/kg): 16.10±21.66 h^2; Vz ([1]; oral SZ-A 200 mg/kg): 17.77 ± 20.83 L/kg; DNJ metabolites in plasma [3]: did not detect any DNJ metabolites; effect on the major CYP450s in HLMs, either inhibition or activation (major CYP450s in HLMs): no significant effect"
"OC[C@H]1NCC[C@@H](O)[C@@H]1O [FA, fagomine]",0.5 ± 0.3 h,0.56 ± 0.37 h,0.88 ± 0.27 h,≤ 0.88 h,1040 ± 356 ng·h/mL,1040 ± 356 ng·h/mL,616 ± 168 ng/mL,1.16 ± 0.31 h,1.55 ± 0.23 h,1.55 ± 0.23 h,2370 ± 634 ng·h/mL,2370 ± 634 ng·h/mL,1250 ± 506 ng/mL,1.19 ± 0.03 h,1.67 ± 0.61 h,1.67 ± 0.61 h,6010 ± 1650 ng·h/mL,6010 ± 1650 ng·h/mL,2580 ± 1250 ng/mL,1.08 ± 0.04 h,"MRT last ([1]; oral SZ-A 200 mg/kg): 1.97 ± 0.22 h; MRT inf ([1]; oral SZ-A 200 mg/kg): 1.97 ± 0.22 h; CLz ([1]; oral SZ-A 25 mg/kg): 78.5 ± 24.3 mL/min/kg; VRT(0-t) ([1]; oral SZ-A 25 mg/kg): 1.46±0.55 h^2; VRT(0-∞) ([1]; oral SZ-A 25 mg/kg): 1.46±0.55 h^2; Vz ([1]; oral SZ-A 25 mg/kg): 7.62 ± 2.89 L/kg; CLz ([1]; oral SZ-A 50 mg/kg): 66.7 ± 17.3 mL/min/kg; VRT(0-t) ([1]; oral SZ-A 50 mg/kg): 1.90±2.02 h^2; VRT(0-∞) ([1]; oral SZ-A 50 mg/kg): 1.91±2.02 h^2; Vz ([1]; oral SZ-A 50 mg/kg): 6.88 ± 1.85 L/kg; CLz ([1]; oral SZ-A 200 mg/kg): 105 ± 26.7 mL/min/kg; VRT(0-t) ([1]; oral SZ-A 200 mg/kg): 3.08±0.76 h^2; VRT(0-∞) ([1]; oral SZ-A 200 mg/kg): 3.08±0.76 h^2; Vz ([1]; oral SZ-A 200 mg/kg): 9.94 ± 2.86 L/kg; effect on the major CYP450s in HLMs, either inhibition or activation (major CYP450s in HLMs): no significant effect"
